Experimental data from patent US20260325654A1, “METHODS AND COMPOSITIONS FOR TARGETED PROTEIN DEGRADATION” (Ranok Therapeutics (Hangzhou) Co. Ltd., priority 2023, published 2026).
pIC50: −log10 of the molar value. Where a name gives a salt, the structure may show the parent alone.

How the values were obtained:
GP2D = assay: CellTiter-Glo Reagent cancer cell line proliferation assay, GP2D; type: cell-based; conditions: Homo sapiens, KRAS(G12D) heterozygous, 24 hr
From the text: (§1) The following cancer cell lines were employed: • AsPC-1 human pancreatic adenocarcinoma, homozygous KRAS(G12D), (ATCC, #CRL-1682); A-427 human lung carcinoma, heterozygous KRAS(G12D), (ATCC, #HTB-53); AGS human gastric adenocarcinoma, heterozygous KRAS(G12D), (ATCC, #CRL-1739); GP2D human colon adenocarcinoma, heterozygous KRAS(G12D), (Sigma Aldrich, 95090714); SW1990 human pancreatic adenocarcinoma, homozygous KRAS(G12D), (ATCC, #CRL2172); LU65A human lung giant cell carcinoma, heterozygous KRAS(G12C), (JCRB Cell Bank, #JCRB0054); NCIH727 human lung carcinoid, heterozygous KRAS(G12V), (ATCC, #CRL-5815); MKN1 human gastric adenosquamous carcinoma KRAS (wt), (JCRB Cell Bank, #JCRB0252). Cell lines were cultured according to ATCC, JCRB and Sigma Aldrich recommendations.
(§2) Cells were plated in 96-well tissue culture plates at 4,000 cells/well and incubated at 37° C./5% CO2 for 24 hr in 100 μl of media. 3-fold serial dilutions of each test compound were prepared ranging from 20 μM to 1.02 nM. Cells were then treated with test compounds at various concentrations with a final concentration of 0.5% DMSO/well, and then incubated at 37° C./5% CO2 for 24 hr. 100 μl of CellTiter-Glo® Reagent (Promega Corporation, Madison, WI) was added to each well and processed according manufacturer's protocol. Results were analyzed and IC50-values were calculated in GraphPad 7 software.

KRAS(G12C) = target: T1, KRAS(G12C) (Homo sapiens, UniProt P01116, G12C); assay: KRAS Western Blot Protein Degradation Assay, LU65A; type: cell-based; conditions: 24 hr; for DC50: read-out: WB data LU65A DC50; for Dmax: read-out: WB data LU65A DMax
T1 construct: LU65A that expresses KRAS(G12C); host or cells: LU65A
From the text: as §1
(§3) Cell lines SW1990 and GP2D that express KRAS(G12D), LU65A that expresses KRAS(G12C), and NCIH727 that expresses KRAS(G12V) were seeded in 6- or 12-well tissue culture plates, and after 1 hr, test compounds were added at various concentrations and incubated at 37° C./5% CO2 for 24 hr. Cells were then washed with cold PBS, aspirated and cold RIPA buffer containing a protease/phosphatase inhibitor cocktail was added to lyse cells. After centrifugation, the total protein concentrations of cell lysates were determined using the BCA protein assay. Samples were normalized for equivalent protein concentrations, 5× SDS-PAGE loading buffer added and denatured at 100° C. for 10 min. 20 μl of each sample/well was loaded on a SDS-PAGE gel and electrophoresed for 20 min at 80 V, then 120 V for 1.5 hr. Gels were then electroblotted to nitrocellulose membranes using a wet-transfer method at 250 mA for 2.5 hr. Membranes were incubated with blocking buffer for 1 hr and washed 3 times with TBST for 5 min. Membranes were then incubated with anti-KRAS (Sigma-Aldrich, #SAB1404011) and anti-β-Actin monoclonal antibodies (Cell Signaling Technology, #3700) diluted in blocking buffer at 4° C. overnight per the manufacturer's recommendations. After washing 3 times, blots were incubated with appropriately labeled secondary antibodies for 1 hr at room temperature and washed again. Fluorescence imaging and quantitation was performed using a LI-COR Odyssey. Results was analyzed using GraphPad Prism 7 software. Compound concentrations that induced KRAS degradation (DC50 and DCmax) were calculated using GraphPad Prism 7 software.

MKN1 = assay: CellTiter-Glo Reagent cancer cell line proliferation assay, MKN1; type: cell-based; conditions: Homo sapiens, MKN-1; MKN1, KRAS (wt), 24 hr
From the text: as §1, §2

LU65A = assay: CellTiter-Glo Reagent cancer cell line proliferation assay, LU65A; type: cell-based, human; conditions: Homo sapiens, 24 h, KRAS(G12C) heterozygous
From the text: as §1, §2

KRAS(G12V) = target: T2, KRAS(G12V) (Homo sapiens, UniProt P01116, G12V); assay: KRAS Western Blot Protein Degradation Assay, NCIH727; type: cell-based; conditions: for DC50: 24 hr, read-out: WB data NCIH727 DC50; for Dmax: NCI-H727, 24 hr, read-out: WB data NCIH727 DMax
T2 construct: anti-KRAS Western blot degradation by PROTACs recruiting CRBN or VHL
From the text: as §1, §3

NCIH727 = assay: CellTiter-Glo Reagent cancer cell line proliferation assay, NCIH727; type: cell-based, human; conditions: Homo sapiens, NCI-H727, 24 h, NCIH727, KRAS(G12V) heterozygous
From the text: as §1, §2

AGS = assay: CellTiter-Glo Reagent cancer cell line proliferation assay, AGS; type: cell-based, human; conditions: Homo sapiens, 24 h, KRAS(G12D) heterozygous
From the text: as §1, §2

SW1990 = assay: CellTiter-Glo Reagent cancer cell line proliferation assay, SW1990; type: cell-based; conditions: Homo sapiens; SW1990, KRAS(G12D) homozygous, 24 hr
From the text: as §1, §2

T2 sequence (P01116 1-188 isoform P01116-2 G12V): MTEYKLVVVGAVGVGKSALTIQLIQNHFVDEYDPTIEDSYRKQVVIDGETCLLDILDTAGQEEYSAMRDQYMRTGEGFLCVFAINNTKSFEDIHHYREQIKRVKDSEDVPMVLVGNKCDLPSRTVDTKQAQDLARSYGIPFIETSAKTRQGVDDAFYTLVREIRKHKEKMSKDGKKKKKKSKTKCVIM
T1 sequence (P01116 1-185 isoform P01116-2 G12C limits assumed): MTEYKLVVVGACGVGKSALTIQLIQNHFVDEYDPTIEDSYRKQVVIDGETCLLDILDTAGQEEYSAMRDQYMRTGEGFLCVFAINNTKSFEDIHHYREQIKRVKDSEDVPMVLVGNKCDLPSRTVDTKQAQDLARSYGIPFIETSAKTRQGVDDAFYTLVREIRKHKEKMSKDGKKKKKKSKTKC

| Compound | pIC50 (GP2D) | DC50 (KRAS(G12C)) [nM] | Dmax (KRAS(G12C)) [%] | pIC50 (MKN1) | pIC50 (LU65A) | DC50 (KRAS(G12V)) [nM] | Dmax (KRAS(G12V)) [%] | pIC50 (NCIH727) | pIC50 (AGS) | pIC50 (SW1990) |
| --- | --- | --- | --- | --- | --- | --- | --- | --- | --- | --- |
| C#Cc1c(F)ccc2cc(O)cc(-c3ncc4c(N5CC6CCC(C5)N6C(=O)C(C)(C)C#N)nc(OCC5(CN6CCN(CC7CCN(c8ccc9c(c8)CN(C8CCC(=O)NC8=O)C9=O)CC7)CC6)CC5)nc4c3F)c12 (stereo not drawn) [Compound 106] | 6.00 to 7.00 | > 1000 | 10 to 50 | > 7.00 | < 6.00 | > 1000 | 10 to 50 | < 6.00 | < 6.00 |  |
| C#Cc1c(F)ccc2cc(O)cc(-c3ncc4c(N5CC6CCC(C5)N6)nc(OCC5(CN6CCC(C#Cc7ccc8c(c7)CN(C7CCC(=O)NC7=O)C8=O)CC6)CC5)nc4c3F)c12 (stereo not drawn) [Compound 91] | > 7.00 |  |  |  |  |  |  |  | > 7.00 | 6.00 to 7.00 |
| C#Cc1c(F)ccc2cc(O)cc(-c3ncc4c(N5CC6CCC(C5)N6C(=O)C(C)C#N)nc(OCC5(CN6CCN(CC7CCN(c8ccc9c(c8)CN(C8CCC(=O)NC8=O)C9=O)CC7)CC6)CC5)nc4c3F)c12 (stereo not drawn) [Compound 108] | 6.00 to 7.00 | < 100 | > 50 | 6.00 to 7.00 | > 7.00 | < 100 | > 50 | > 7.00 | 6.00 to 7.00 |  |
| C#Cc1c(F)ccc2cc(O)cc(-c3ncc4c(N5CC6CCC(C5)N6C(=O)C5(C#N)CC5)nc(OCC5(CN6CCN(CC7CCN(c8ccc9c(c8)CN(C8CCC(=O)NC8=O)C9=O)CC7)CC6)CC5)nc4c3F)c12 (stereo not drawn) [Compound 107] | 6.00 to 7.00 | 100 to 1000 | > 50 | 6.00 to 7.00 | 6.00 to 7.00 | < 100 | > 50 | < 6.00 | < 6.00 |  |
| C#Cc1c(F)ccc2cc(O)cc(-c3ncc4c(N5C[C@H]6CC[C@@H](C5)N6)nc(OCC5(CN(C)Cc6ccc(C7CN(c8ccc9c(c8)CN(C8CCC(=O)NC8=O)C9=O)C7)cc6)CC5)nc4c3F)c12 (stereo partly drawn) [Compound 92, 3-(5-(3-(4-((((1-(((4-((1R,5S)-3,8-diazabicyclo[3.2.1]octan-3-yl)-7-(8-ethynyl-7-fluoro-3-hydroxynaphthalen-1-yl)-8-fluoropyrido[4,3-d]pyrimidin-2-yl)oxy)methyl)cyclopropyl)methyl)(methyl)amino)methyl)phenyl)azetidin-1-yl)-1-oxoisoindolin-2-yl) piperidine-2,6-dione formate] | > 7.00 |  |  |  |  |  |  |  | > 7.00 | > 7.00 |
| C#Cc1c(F)ccc2cc(O)cc(-c3ncc4c(N5CCN(C(=O)C=C)[C@@H](CC#N)C5)nc(OCC5(CN6CCN(CC7CCN(c8ccc9c(c8)CN(C8CCC(=O)NC8=O)C9=O)CC7)CC6)CC5)nc4c3F)c12 (stereo partly drawn) [Compound 79] |  | < 100 | > 50 | < 6.00 | > 7.00 |  |  | < 6.00 |  |  |
| C#Cc1c(F)ccc2cc(O)cc(-c3ncc4c(N5CC6CCC(C5)N6C(=O)CC#N)nc(OCC5(CN6CCN(CC7CCN(c8ccc9c(c8)CN(C8CCC(=O)NC8=O)C9=O)CC7)CC6)CC5)nc4c3F)c12 (stereo not drawn) [Compound 80] |  | < 100 | > 50 |  | 6.00 to 7.00 | 100 to 1000 | > 50 | > 7.00 |  |  |
| C#Cc1c(F)ccc2cc(O)cc(-c3ncc4c(N5CC6CCC(C5)N6C(=O)[C@@H](C)C#N)nc(OCC5(CN6CCN(CC7CCN(c8ccc9c(c8)CN(C8CCC(=O)NC8=O)C9=O)CC7)CC6)CC5)nc4c3F)c12 (stereo partly drawn) [Compound 109] | 6.00 to 7.00 |  |  | < 6.00 | > 7.00 | < 100 | > 50 | 6.00 to 7.00 | 6.00 to 7.00 |  |
| O=CO.[2H]C([2H])([2H])Oc1nc(-c2cc(O)cc3ccc(F)c(C#C)c23)c(F)c2nc(OCC3(CN4CCN(CC5CCN(c6ccc7c(c6)CN(C6CCC(=O)NC6=O)C7=O)CC5)CC4)CC3)nc(N3CC4CCC(C3)N4C(=O)CCC#N)c12 (stereo not drawn) [Compound 114] | > 7.00 | < 100 | > 50 | 6.00 to 7.00 | > 7.00 | < 100 | > 50 | > 7.00 | > 7.00 |  |
| C#Cc1c(F)ccc2cc(O)cc(-c3ncc4c(N5CCN(C(=O)C(=C)F)[C@@H](CC#N)C5)nc(OCC5(CN6CCN(CC7CCN(c8ccc9c(c8)CN(C8CCC(=O)NC8=O)C9=O)CC7)CC6)CC5)nc4c3F)c12 (stereo partly drawn) [Compound 105] |  | < 100 | > 50 | < 6.00 | > 7.00 |  |  |  |  |  |
| C#Cc1c(F)ccc2cc(O)cc(-c3ncc4c(N5CCN(C(=O)CC#N)[C@@H](CC#N)C5)nc(OCC5(CN6CCN(CC7CCN(c8ccc9c(c8)CN(C8CCC(=O)NC8=O)C9=O)CC7)CC6)CC5)nc4c3F)c12 (stereo partly drawn) [Compound 103, 3-((2S)-2-(cyanomethyl)-4-(2-((1-((4-((1-(2-(2,6-dioxopiperidin-3-yl)-1-oxoisoindolin-5-yl)piperidin-4-yl)methyl)piperazin-1-yl)methyl)cyclopropyl)methoxy)-7-(8-ethynyl-7-fluoro-3-hydroxynaphthalen-1-yl)-8-fluoropyrido[4,3-d]pyrimidin-4-yl)piperazin-1-yl)-3-oxopropanenitrile] | < 6.00 | > 1000 | 10 to 50 | < 6.00 | < 6.00 | > 1000 | > 50 | < 6.00 | < 6.00 |  |
| O=CO.[2H]C([2H])([2H])Oc1nc(-c2cc(O)cc3ccc(F)c(C#C)c23)c(F)c2nc(OCC3(CN4CCN(CC5CCN(c6ccc7c(c6)CN(C6CCC(=O)NC6=O)C7=O)CC5)CC4)CC3)nc(N3CC4CCC(C3)N4C(=O)CC(C)C#N)c12 (stereo not drawn) [Compound 115] | > 7.00 | < 100 | > 50 | < 6.00 | > 7.00 | < 100 | > 50 | > 7.00 | > 7.00 |  |
| C#Cc1c(F)ccc2cc(O)cc(-c3nc(OC)c4c(N5CC6CCC(C5)N6C(=O)CC#N)nc(OCC5(CN6CCN(CC7CCN(c8ccc9c(c8)CN(C8CCC(=O)NC8=O)C9=O)CC7)CC6)CC5)nc4c3F)c12 (stereo not drawn) [Compound 102] | 6.00 to 7.00 | > 1000 | 10 to 50 | 6.00 to 7.00 | 6.00 to 7.00 | < 100 | > 50 | 6.00 to 7.00 | < 6.00 |  |
| C#Cc1c(F)ccc2cc(O)cc(-c3nc(OC)c4c(N5CCN(C(=O)CC#N)[C@@H](CC#N)C5)nc(OCC5(CN6CCN(CC7CCN(c8ccc9c(c8)CN(C8CCC(=O)NC8=O)C9=O)CC7)CC6)CC5)nc4c3F)c12 (stereo partly drawn) [Compound 104] | < 6.00 |  |  | 6.00 to 7.00 | 6.00 to 7.00 |  |  | < 6.00 | < 6.00 |  |
